Here are results for four molecules from patent US9849110B2, “Intermittent fibrate administration method” (Biocopea Limited, priority 2012, dated 2017).

A short description of data set [1]: Example 3: blood test of LDL, HDL and cholesterol levels, periodic treatment with fluvastatin, person. Type of data set: in vivo, human. The protocol:
A person visits their physician and during the visit undergoes a blood test. The person is found to have an LDL level of 87 mg/dl, HDL level of 41 mg/dl and a cholesterol level of 266 mg/dl. […] To remind the person to take fluvastatin following the two month breaks, the physician inputs the days that the person is to take fluvastatin and arranges for the person to receive text messages through Skype that the person will receive on their cell phone and their personal computer. Two months after taking the first weeks dose of atorvastatin, the person receives a reminder by text to take the second weeks dose of atorvastatin two months later. This repeats every two months. The person returns to the physician for a follow on blood test six months later and they are found to have LDL level of 112 mg/dl, HDL level of 47 mg/dl and a cholesterol level of 188 mg/dl. At this point the physician changes the frequency of dosing to one week taking fluvastatin followed by a break of three months at a dose of 40 mg, with this schedule repeating thereafter. The physician inputs the new schedule so that the person receives text messages every three months to restart taking fluvastatin. A year later, the person returns to the physician for a blood test. […] The physician recommends that the person continue to take fluvastatin for a week followed by a three month break and repeating this schedule thereafter, which the person does. A year later the person returns to the physician for a blood test. […] The person continues taking the atorvastatin for a week followed by a three month break and repeating this schedule for the rest of their life, with their LDL levels ranging from 115-120, HDL levels ranging from 45-51 and their cholesterol levels ranging from 151-162.

Data set [2] can be described thus: Example 2: blood test of LDL, HDL and cholesterol levels, periodic treatment with atorvastatin, person. It counts as in vivo, human. The following applies: 40 mg orally, one week on / a month off, after six months.
Test in data set [3]: as above
Type of data set: in vivo, human. The conditions noted are these: for HDL level / LDL level / cholesterol level: one week on / two months off. The protocol: A person visits their physician and during the visit undergoes a blood test. The person is found to have an LDL level of 92 mg/dl, HDL level of 41 mg/dl and a cholesterol level of 212 mg/dl. […] To remind the person to take atorvastatin after the monthly breaks, they download an application to their smart phone and inputs the first day they are to take atorvastatin and the application automatically determines the day a month after stopping taking atorvastatin that they are to start taking the atorvastatin again. A month after taking the first weeks dose of atorvastatin, the person receives a reminder from the application on their smart phone to take the second dose of atorvastatin. This repeats on a monthly basis. The person returns to the physician for a follow on blood test six months later and they are found to have LDL level of 120 mg/dl, HDL level of 45 mg/dl and a cholesterol level of 161 mg/dl. At this point the physician changes the frequency of the breaks between week of dosing to every two months, while maintaining the dose of 20 mg. The person inputs the new schedule into the application on their smart phone and they are reminded to take atorvastatin every two month by the application. Six months later, the person returns to the physician for a blood test. […] The physician recommends that the person continue to take atorvastatin for a week followed by a two month break, which the person does. A year later the person returns to the physician for a blood test. […] The person continues taking the atorvastatin for a week every two months for the rest of their life, with their LDL levels ranging from 115-120, HDL levels ranging from 45-51 and their cholesterol levels ranging from 151-162.

Data set [4] is described as follows: Example 4: blood test of LDL, HDL and cholesterol levels, periodic treatment with lovastatin, person. It counts as in vivo, human. The protocol:
A person visits their physician and during the visit undergoes a blood test. The person is found to have an LDL level of 91 mg/dl, HDL level of 40 mg/dl and a cholesterol level of 222 mg/dl. […] To remind the person to take lovastatin after each four month break, the physician inputs the days that the person is to take lovastatin and arranges for the person to receive a letter by postal mail to remind them to take the lovastatin. Four months after taking the first weeks dose of lovastatin, the person receives a reminder by postal mail to take the second weeks dose. This repeats on an every four month basis. The person returns to the physician for a follow on blood test one year later and they are found to have LDL level of 109 mg/dl, HDL level of 45 mg/dl and a cholesterol level of 184 mg/dl. The person continues taking the atorvastatin for a week followed by a break of four months, which they repeat for the rest of their life, with their LDL levels ranging from 115-120, HDL levels ranging from 45-51 and their cholesterol levels ranging from 151-162.

Data set [5] in a line: Example 5: blood test of LDL, HDL and cholesterol levels, periodic treatment with gemfibrozil, person. It counts as in vivo, human. The protocol:
A person visits their physician and during the visit undergoes a blood test. The person is found to have an LDL level of 74 mg/dl, HDL level of 32 mg/dl and a cholesterol level of 311 mg/dl. The physician prescribes gemfibrozil at an initial dose of 600 mg taken orally for one week followed by a one month break, followed by a week of taking gemfibrozil followed by a month break, which schedule is repeated thereafter. To remind the person to take gemfibrozil after the monthly break, the physician inputs the days that the person is to take gemfibrozil and arranges for the person to receive text messages through their cell phone and a telephone call to remind them to take gemfibrozil. One month after taking the first weeks dose of gemfibrozil, the person receives a reminder by text to take the second weeks dose of gemfibrozil. This repeats on a monthly basis. The person returns to the physician for a follow on blood test six months later and they are found to have LDL level of 101 mg/dl, HDL level of 41 mg/dl and a cholesterol level of 211 mg/dl. The physician recommends that the person continue to take gemfibrozil for a week followed by a month break, which the person does on a repeated basis. A year later the person returns to the physician for a blood test.

For data set [6] the following is noted: meta-analysis of clinical trials; cited from earlier work.
The mark [7] stands for this setting: once monthly administration (so in the source).
Setting [8] is: one week on / three month break, for the rest of their life, in mg/dL.
Setting [9] is: a week every two months, for the rest of their life, in mg/dL.
[10] abbreviates: dose of 20 mg, after six months.
The mark [11] stands for this setting: one week on / four months off, for the rest of their life, in mg/dL.
The mark [12] stands for this setting: 600 mg orally, one week on / one month off, after six months.
The mark [13] stands for this setting: one week on / one month off, a year later.
The mark [14] stands for this setting: one week on / one month off, for the rest of their life, in mg/dL.
Setting [15] is: 40 mg, one week on / four months off, one year later.

SMILES strings stand for the structures.

Take `CC(C)c1c(C(=O)Nc2ccccc2)c(-c2ccccc2)c(-c2ccc(F)cc2)n1CC[C@@H](O)C[C@@H](O)CC(=O)O` [atorvastatin]: the “maintaining normal levels of LDL, HDL and cholesterol” value was “successful at maintaining normal levels of LDL, HDL and cholesterol” in data set [1] (setting [7]); “successful at maintaining normal levels of LDL, HDL and cholesterol” in data set [3] (setting [7]); “successful at maintaining normal levels of LDL, HDL and cholesterol” in data set [5] (once monthly administration). Also, the HDL levels ranging in data set [1] (setting [8]), in data set [3] (setting [9]) and in data set [4] (setting [11]) was 45-51 each time. For the same molecule, the LDL levels ranging in data set [1] (setting [8]), in data set [3] (setting [9]) and in data set [4] (setting [11]) was 115-120 in each case. The cholesterol levels ranging in data set [1] (setting [8]), in data set [3] (setting [9]) and in data set [4] (setting [11]) was 151-162 throughout. Further, the HDL level in data set [2] was found to be 45 mg/dL; in data set [3] (setting [10]), 48 mg/dL; in data set [3] (a year later), 48 mg/dL. The figures for the LDL level in data set [2], in data set [3] (setting [10]) and in data set [3] (a year later) were 120 mg/dL, 120 mg/dL and 118 mg/dL, respectively. Besides, the cholesterol level in data set [2] stood at 161 mg/dL; in data set [3] (setting [10]), 160 mg/dL; in data set [3] (a year later), 161 mg/dL.

`COCc1c(C(C)C)nc(C(C)C)c(/C=C/[C@@H](O)C[C@@H](O)CC(=O)O)c1-c1ccc(F)cc1` [cerivastatin]: in data set [6], the rhabdomyolysis result is “rhabdomyolysis did not occur”.

In data set [5] (setting [12]), `Cc1ccc(C)c(OCCCC(C)(C)C(=O)O)c1` [gemfibrozil] gave an HDL level of 41 mg/dL, an LDL level of 101 mg/dL and a cholesterol level of 211 mg/dL. Also, in data set [5] (setting [13]), the HDL level was 44 mg/dL, the LDL level stood at 106 mg/dL and the cholesterol level worked out at 191 mg/dL. In data set [5] (setting [14]), the HDL levels ranging was 45-51, the LDL levels ranging was 115-120 and the cholesterol levels ranging is recorded as 151-162.

`CC[C@H](C)C(=O)O[C@H]1C[C@@H](C)C=C2C=C[C@H](C)[C@H](CC[C@@H]3C[C@@H](O)CC(=O)O3)[C@H]21` [lovastatin]: in data set [4] (setting [15]), the HDL level was determined as 45 mg/dL, the LDL level was 109 mg/dL and the cholesterol level is 184 mg/dL. Also, the “maintaining normal levels of LDL, HDL and cholesterol” value in data set [4] (once every four month administration) is “successful at maintaining normal levels of LDL, HDL and cholesterol”.
